{
  "source": "patent US9862676B2",
  "about": "“Hydroxamic acid derivative or salt thereof” (TOYAMA CHEMICAL CO., LTD., priority 2013, dated 2018)",
  "key": {"[1]": {"molecular_target": "T1, Pseudomonas aeruginosa LpxC enzyme (Pseudomonas aeruginosa, UniProt P47205)", "T1 construct": "made in house; host or cells: Escherichia coli", "T1 sequence (P47205 1-303)": "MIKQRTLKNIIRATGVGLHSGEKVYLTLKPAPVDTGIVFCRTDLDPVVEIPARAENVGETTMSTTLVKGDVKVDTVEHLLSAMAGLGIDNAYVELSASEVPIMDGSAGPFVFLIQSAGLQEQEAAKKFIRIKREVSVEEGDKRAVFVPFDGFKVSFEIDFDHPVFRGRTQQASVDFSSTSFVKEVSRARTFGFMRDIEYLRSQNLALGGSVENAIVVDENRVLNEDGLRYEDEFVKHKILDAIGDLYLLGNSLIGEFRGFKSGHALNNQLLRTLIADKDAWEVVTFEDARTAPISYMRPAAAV", "assay": "Test to evaluate Pseudomonas aeruginosa LpxC enzyme inhibitory activity", "type": "biochemical", "procedure": "The Pseudomonas aeruginosa LpxC enzyme activity was measured by reacting LpxC with its substrate UDP-3-O—(R-3-hydroxydecanoyl)-N-acetylglucosamine and measuring the amount of the reaction product by the quantification of an amino group present in the product. This measurement was carried out according to a method described in, for example, International Publication No. WO 11/132712 pamphlet or a method similar thereto.\nSpecifically, to the Pseudomonas aeruginosa LpxC enzyme (which was obtained by preparing chromosomal DNA from Pseudomonas aeruginosa, obtaining the Pseudomonas aeruginosa LpxC gene by PCR (polymerase chain reaction) using LpxC-specific primers, and incorporating this gene into a vector, followed by gene expression using Escherichia coli), 20 μmol/L UDP-3-O—(R-3-hydroxydecanoyl)-N-acetylglucosamine (Wako Pure Chemical Industries, Ltd.) was added, and the mixture was incubated at 25° C. for 1 hour. This reaction was carried out in a 40 mmol/L HEPES buffer solution (pH 8.0) containing 0.02% Brij 35 and 80 μmol/L dithiothreitol. The reaction was terminated by the addition of 20% acetic acid (final concentration: 0.95%) to the reaction solution. Then, fluorescamine (final concentration: 1.6 mg/mL) dissolved in anhydrous dioxane was added thereto. The amount of the reaction product was detected at an excitation wavelength/fluorescence wavelength=390 nm/495 nm. Each test compound was allowed to coexist at various concentrations in the reaction to obtain an inhibition curve."}, "hERG current": {"molecular_target": "T2, hERG current (Homo sapiens, UniProt Q12809)", "T2 construct": "host or cells: HEK 293 cells", "T2 sequence (Q12809 whole entry)": "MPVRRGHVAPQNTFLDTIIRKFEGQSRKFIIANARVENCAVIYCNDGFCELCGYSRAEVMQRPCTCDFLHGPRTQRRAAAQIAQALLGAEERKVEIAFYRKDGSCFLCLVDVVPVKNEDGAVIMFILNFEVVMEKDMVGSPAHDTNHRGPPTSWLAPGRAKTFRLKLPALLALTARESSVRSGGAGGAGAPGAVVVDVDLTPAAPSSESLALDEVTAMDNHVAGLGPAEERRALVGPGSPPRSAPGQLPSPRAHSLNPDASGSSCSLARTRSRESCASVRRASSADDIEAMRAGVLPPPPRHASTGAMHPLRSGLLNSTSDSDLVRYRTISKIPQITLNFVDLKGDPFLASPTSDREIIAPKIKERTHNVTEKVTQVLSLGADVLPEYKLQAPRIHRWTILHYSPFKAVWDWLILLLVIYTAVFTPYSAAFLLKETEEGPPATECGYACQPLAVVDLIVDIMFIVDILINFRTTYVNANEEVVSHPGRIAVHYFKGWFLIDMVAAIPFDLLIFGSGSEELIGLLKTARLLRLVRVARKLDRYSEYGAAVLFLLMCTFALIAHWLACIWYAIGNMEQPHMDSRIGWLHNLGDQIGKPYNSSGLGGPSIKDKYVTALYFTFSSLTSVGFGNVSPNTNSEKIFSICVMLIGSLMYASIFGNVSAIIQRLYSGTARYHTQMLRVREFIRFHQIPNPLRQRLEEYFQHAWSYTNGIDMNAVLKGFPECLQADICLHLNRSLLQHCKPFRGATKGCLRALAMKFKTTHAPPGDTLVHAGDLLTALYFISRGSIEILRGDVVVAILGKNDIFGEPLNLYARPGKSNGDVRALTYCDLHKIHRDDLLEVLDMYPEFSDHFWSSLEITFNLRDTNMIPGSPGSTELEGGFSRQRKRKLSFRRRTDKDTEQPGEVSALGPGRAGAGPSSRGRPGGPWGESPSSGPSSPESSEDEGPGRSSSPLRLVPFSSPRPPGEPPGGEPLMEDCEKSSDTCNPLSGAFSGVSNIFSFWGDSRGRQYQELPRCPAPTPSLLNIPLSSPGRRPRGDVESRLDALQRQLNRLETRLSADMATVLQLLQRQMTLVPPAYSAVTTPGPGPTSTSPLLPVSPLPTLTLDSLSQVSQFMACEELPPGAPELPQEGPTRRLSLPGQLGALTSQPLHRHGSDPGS", "assay": "Evaluation of hERG inhibitory activity (whole cell clamp, HEK 293 cells)", "type": "cell-based", "conditions": "up to 300 μmol/L; HEK 293 cells transfected with hERG gene, tail current 10 minutes after application", "procedure": "HEK 293 cells (human embryo kidney 293 cells, Cytomyx LLC) transfected with hERG gene (human ether-a-go-go related gene) were used. The culture solution used was a MEM medium containing 10% fetal bovine serum and 1% nonessential amino acid and further supplemented with Geneticin at a concentration of 400 μg/mL. The cells were cultured in a carbonic acid gas incubator (37.0° C., 5% CO2).\nThe hERG current was measured by a whole cell clamp method. A glass cover with the cells for measurement attached thereto was placed in a dish and perfused at a rate of 2 mL/min with a perfusate (composition: 137 mmol/L NaCl, 4 mmol/L KCl, 10 mmol/L HEPES, 1.8 mmol/L CaCl2, 1 mmol/L MgCl2, 10 mmol/L glucose, pH 7.4). The inside temperature of the perfusion chamber was kept at 25° C. […]\nBefore the application and 10 minutes after the application, the peak value of tail current in the hERG current waveform was analyzed to calculate the ratio of the value 10 minutes after the application to the value before the application (relative value, %)."}, "[2]": {"test_system": "multidrug-resistant Pseudomonas aeruginosa clinical isolate (S-2838 strain)", "assay": "Defense against mouse systemic infection using multidrug-resistant Pseudomonas aeruginosa", "type": "in vivo", "conditions": "male ICR mice, S-2838 strain i.p.", "procedure": "The mice used were male ICR SPF mice (4 weeks old: 5 individuals per group). To prepare a bacterial inoculum solution, a multidrug-resistant Pseudomonas aeruginosa clinical isolate (S-2838 strain) cultured overnight at 37° C. on a Mueller-Hinton agar plate was cultured for 5 hours in a cation-adjusted Mueller-Hinton medium and then diluted 10-fold with a 10% mucin/phosphate buffer solution to prepare the inoculum solution. Infection was induced by the intraperitoneal inoculation of 0.5 mL of the inoculum solution (approximately 10^6 CFU/mouse) to each mouse. Each test compound was dissolved in a 10% hydroxypropylated β-cyclodextrin/2.5% mannitol aqueous solution and intravenously administered to the tail a single dose of 50 mg/kg at 1 hour after the infection. Three days after the infection, the number of survivors was recorded."}, "[3]": {"assay": "Test on inhibition of Vero cell growth (XTT)", "type": "cell-based", "conditions": "African green monkey, Vero cells, 3 days culture, read-out: CC50 (concentration inhibiting 50% of cell growth)", "procedure": "Each test compound was dissolved in dimethyl sulfoxide, adjusted to each concentration using E'MEM, and then dispensed at 0.1 mL/well to 96-well microplates. The Vero cell suspension was prepared at 3×10^4 cells/mL using E'MEM supplemented with 20% FBS, inoculated thereto at 0.1 mL/well, and cultured at 37° C. for 3 days under 5% CO2. At the completion of the culture, PBS supplemented with 1 mg/mL 2,3-bis-(2-methoxy-4-nitro-5-sulfophenyl)-5-((phenylamino)carbonyl)-2H-tetrazolium inner salt monosodium salt (XTT) and 25 μM phenazine methosulfate (PMS) was prepared and added thereto at 50 μL/well. Approximately 2 hours later, the absorbance at 450 nm was measured using a microplate reader."}, "[4]": {"test_system": "Pseudomonas aeruginosa ATCC27853 strain", "assay": "Antibacterial activity, MIC by broth microdilution (CLSI)", "type": "cell-based", "procedure": "(§1) The minimum inhibitory concentration (MIC) was measured according to the CLSI (Clinical and Laboratory Standards Institute) standard method using a broth microdilution method given below. The bacteria used were a Pseudomonas aeruginosa ATCC27853 strain, an Escherichia coli ATCC25922 strain and a Klebsiella pneumoniae ATCC13883 strain. Test bacterial cells of each strain cultured overnight in a Mueller-Hinton agar medium were scraped off and suspended at the McFarland 0.5 standard, and this suspension was diluted 10-fold to prepare an inoculum solution. The inoculum solution (0.005 mL) was inoculated to a cation-adjusted Mueller-Hinton medium containing each test compound and cultured at 35° C. for 16 to 20 hours. The minimum drug concentration at which bacterial growth was not visible to the naked eye was defined as MIC."}, "[5]": {"test_system": "Escherichia coli ATCC25922 strain", "assay": "Antibacterial activity, MIC by broth microdilution (CLSI)", "type": "cell-based", "procedure": "as §1"}, "[6]": {"test_system": "Klebsiella pneumoniae ATCC13883 strain", "assay": "Antibacterial activity, MIC by broth microdilution (CLSI)", "type": "cell-based", "procedure": "as §1"}, "[7]": {"test_system": "Chinese hamster lung fibroblasts (CHL/IU cells)", "assay": "In vitro micronucleus test for genotoxicity", "type": "cell-based", "conditions": "dose of 1 mmol/L or lower, short-time treatment (with and without metabolic activation) and 30-hour treatment methods", "procedure": "In order to examine the inducibility of the chromosomal aberrations by each test compound in cultured cells, the in vitro micronucleus test was carried out. This test was carried out by a short-time treatment method (in the presence and absence of a metabolic activation) and a 30-hour treatment method using Chinese hamster lung fibroblasts (CHL/IU cells). The concentration of the test compound was set to 1.00 mmol/L as the maximum dose with reference to the “Guidance on Genotoxicity Testing and Data Interpretation for Pharmaceuticals Intended for Human Use”. Specimens were observed as to doses of 0.25, 0.50 and 1.00 mmol/L. The cells were inoculated at 15×10^4 cells to a 60-mm dish (IWAKI) and precultured at 37° C. for 24 hours under 5% CO2 using a MEM medium (Sigma-Aldrich Co., Ltd.) containing 10% newborn calf serum (Sigma-Aldrich Co., Ltd.) and 50 U/mL-50 μg/mL Penicillin-Streptomycin (Sigma-Aldrich Co., Ltd.). After the completion of the preculture, a vehicle (DMSO) or each test compound was added thereto. In the short-time treatment method, 6 hours after the culture, the cells were washed with PBS(−) (Sigma-Aldrich Co., Ltd.), and then, the medium was replaced with a fresh medium, followed by further culture for 24 hours. In the 30-hour treatment method, after the addition of the test compound, the cells were cultured for 30 hours. […]"}, "[8]": {"conditions": "single intravenous dose 50 mg/kg 1 hour after infection"}},
  "data": [
    {"smiles": "CNC(=O)[C@@](C)(C(=O)NO)N(C)C(=O)c1ccc(C#Cc2ccc([C@H](O)COC)cc2)cc1", "note": "[Example 23, (2S)—N-hydroxy-2-((4-((4-((1S)-1-hydroxy-2-methoxyethyl)phenyl)ethynyl)benzoyl)(methyl)amino)-N′,2-dimethyl-malonamide]", "values": [
      {"measurement": "IC50", "setting": "[1]", "value": "< 50", "unit": "nM"},
      {"measurement": "hERG inhibitory activity", "setting": "hERG current", "value": "did not exhibit hERG inhibitory activity"},
      {"measurement": "mice surviving 3 days after the bacterial inoculation", "setting": "[2]; [8]", "value": 100, "unit": "%"},
      {"measurement": "CC50 at 3 days", "setting": "[3]", "value": "≥ 100", "unit": "µg/mL"},
      {"measurement": "MIC", "setting": "[4]", "value": 1, "unit": "µg/mL"},
      {"measurement": "MIC", "setting": "[5]", "value": 0.25, "unit": "µg/mL"},
      {"measurement": "MIC", "setting": "[6]", "value": 1, "unit": "µg/mL"}
    ]},
    {"smiles": "CNC(=O)[C@@](C)(C(=O)NO)N(C)C(=O)c1ccc(C#Cc2ccc([C@H](O)CO)cc2)cc1", "note": "[Example 20, (2S)-2-((4-((4-((1S)-1,2-dihydroxyethyl)phenyl)ethynyl)benzoyl)(methyl)amino)-N-hydroxy-N′,2-dimethyl-malonamide]", "values": [
      {"measurement": "IC50", "setting": "[1]", "value": "< 50", "unit": "nM"},
      {"measurement": "in vitro micronucleus test result", "setting": "[7]", "value": "negative"},
      {"measurement": "hERG inhibitory activity", "setting": "hERG current", "value": "did not exhibit hERG inhibitory activity"},
      {"measurement": "mice surviving 3 days after the bacterial inoculation", "setting": "[2]; 25 mg/kg", "value": "≥ 60", "unit": "%"},
      {"measurement": "mice surviving 3 days after the bacterial inoculation", "setting": "[2]; [8]", "value": 100, "unit": "%"},
      {"measurement": "CC50 at 3 days", "setting": "[3]", "value": "≥ 100", "unit": "µg/mL"},
      {"measurement": "MIC", "setting": "[4]", "value": 1, "unit": "µg/mL"}
    ]}
  ]
}
